In patent publication US4656184A, “2-(N-substituted hydrazone), thiazoles useful as anti-inflammatories” (priority 1982, dated 1987):
Where two headings read alike, the source gives them in different places.

What was measured:
[1] = molecular target: T1, 12-lipoxygenase (Oryctolagus cuniculus, UniProt G1U492); test: Inhibition of the metabolism of 14C-arachidonate in the blood platelets of rabbits: 12-lipoxygenase route (12-HETE); type: cell-based; settings: rabbit blood platelets
T1 construct: metabolism of ^14 C-Arachidonate in the blood platelets of rabbits; endogenous in cells; host or cells: washed rabbit blood platelets (from platelet-rich plasma)
T1 sequence (G1U492 1-663): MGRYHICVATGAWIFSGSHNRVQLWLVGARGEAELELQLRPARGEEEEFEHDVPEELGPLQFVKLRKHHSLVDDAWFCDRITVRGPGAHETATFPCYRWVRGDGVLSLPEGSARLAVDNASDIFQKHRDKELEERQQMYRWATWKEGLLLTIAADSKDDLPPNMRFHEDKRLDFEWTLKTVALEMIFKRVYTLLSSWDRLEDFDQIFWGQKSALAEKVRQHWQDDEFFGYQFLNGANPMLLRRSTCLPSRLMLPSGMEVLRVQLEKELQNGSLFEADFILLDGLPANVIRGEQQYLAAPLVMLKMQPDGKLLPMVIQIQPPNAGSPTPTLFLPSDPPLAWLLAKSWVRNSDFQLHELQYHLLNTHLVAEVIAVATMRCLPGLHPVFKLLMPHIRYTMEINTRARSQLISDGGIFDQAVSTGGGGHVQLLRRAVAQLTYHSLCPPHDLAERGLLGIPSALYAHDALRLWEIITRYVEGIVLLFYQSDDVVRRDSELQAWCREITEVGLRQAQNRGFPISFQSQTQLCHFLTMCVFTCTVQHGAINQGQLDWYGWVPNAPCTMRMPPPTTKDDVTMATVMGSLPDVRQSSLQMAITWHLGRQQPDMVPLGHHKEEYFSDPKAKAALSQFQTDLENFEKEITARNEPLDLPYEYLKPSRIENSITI
Procedure: (§1) 1.2. Inhibition of the metabolism of
(§2) ^14 C-Arachidonate in the blood platelets of rabbits
(§3) Preparation of a platelet-rich plasma (PRP)
(§4) A 12 ml blood sample is taken, by the intracardiac route, on ACD (anticoagulant consisting of an aqueous solution containing 0.27 g citric acid, 0.5 g disodium citrate and 0.02 g glucose per 20 ml water), at a rate of 1 volume ACD per 6 volumes blood. The blood is centrifuged at 200 g for 10 minutes and the supernatant (PRP) is collected. It is again centrifuged at 1500 g for 15 minutes. The blood-platelet sediment is washed with Buffer I (NaCl: 8 g/l, Tris: 1.21 g/l, KCl: 0.2 g/l, Gelatin: 2.5 g/l; the material is heated at 90° C. to dissolve the gelatin, after which are added glucose: 1 g/l, and N,N'-ethyleneglycol bis(β-aminoethyl ether,)tetraacetic acid or EGTA: 0.075 g/l). The suspension is centrifuged at 1500 g for 10 minutes, and the sediment is taken up into Buffer II (NaCl: 8 g/l, Tris: 1.21 g/l, KCl: 0.2 g/l, CaCl2 : 0.145 g/l, MgCl2 0.2 g/l, gelatin: 2.5 g/l; this material is heated to 90° C., after which glucose (1 g/l) is added, and the pH is adjusted to a value of 7.4 with 0.1 N HCl),
(§5) Metabolism of ^14 C-Arachidonate
(§6) The blood-platelet suspension (0.4 ml/tube) is pre-incubated at 37° C. for 15 minutes, either with 10 μl DMSO (reference), or with varying concentrations of products to be treated dissolved in 10 μl DMSO.
(§7) The incubation is effected in the presence of ^14 C-Arachidonate (1 μg, 0.2 μCi) distributed within 0.1 ml Buffer II. It is blocked after 15 minutes by means of 50 μl citric acid and 250 μl saturated NaCl.

[2] = test system: edema of the ear in rats; test: Cutaneous anti-inflammatory activity: inhibition of the edema of the ear in rats following topic administration; type: in vivo; settings: rat ear edema, topical
Procedure: Cutaneous anti-inflammatory activity determined by the inhibition of the edema of the ear in rats following topic administration. This activity is determined by means of the method according to G. Tonelli and co-workers (Endocrinology, 1965, 77, 625-634). The effect of various concentrations of each compound is determined in at least seven rats. Inflammation is inhibited by a factor of 50% at the following concentrations: […]

[3] = molecular target: T2, 5-lipoxygenase of the peritoneal leukocytes of rabbits (PMNs) (Oryctolagus cuniculus, UniProt G1SNX0); test: Inhibition of the 5-lipoxygenase of the peritoneal leukocytes of rabbits (PMNs), metabolism of 14C-arachidonate; type: cell-based; settings: rabbit peritoneal PMNs; for IC50: n.i. = no inhibition
T2 construct: metabolism of ^14 C-AA in the peritoneal PMNs of rabbits; endogenous in cells; host or cells: rabbit peritoneal polymorphonuclear leukocytes (suspension)
T2 sequence (G1SNX0 1-674): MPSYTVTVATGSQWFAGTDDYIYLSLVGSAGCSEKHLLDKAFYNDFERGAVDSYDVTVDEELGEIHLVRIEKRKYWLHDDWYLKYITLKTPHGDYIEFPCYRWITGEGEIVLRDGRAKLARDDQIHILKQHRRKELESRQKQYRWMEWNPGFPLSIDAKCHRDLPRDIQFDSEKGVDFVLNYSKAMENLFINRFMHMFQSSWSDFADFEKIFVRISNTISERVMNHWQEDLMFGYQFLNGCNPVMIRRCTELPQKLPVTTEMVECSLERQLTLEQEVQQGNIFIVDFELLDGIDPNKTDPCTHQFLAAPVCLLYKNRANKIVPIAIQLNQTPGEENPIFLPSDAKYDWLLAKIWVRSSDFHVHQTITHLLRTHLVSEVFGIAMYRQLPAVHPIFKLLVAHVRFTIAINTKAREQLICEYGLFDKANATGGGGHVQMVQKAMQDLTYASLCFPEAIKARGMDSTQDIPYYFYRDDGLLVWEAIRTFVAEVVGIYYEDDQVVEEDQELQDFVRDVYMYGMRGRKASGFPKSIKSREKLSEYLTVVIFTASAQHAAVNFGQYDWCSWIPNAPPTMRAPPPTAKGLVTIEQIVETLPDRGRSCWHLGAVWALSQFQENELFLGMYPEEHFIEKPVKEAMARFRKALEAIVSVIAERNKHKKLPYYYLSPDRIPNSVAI
Procedure: 1.1. Inhibition of the 5-lipoxygenase of the peritoneal leukocytes of rabbits (PMNs)
(§8) Preparation of a suspension of rabbit PMNs
(§9) The peritoneal leukocytes of rabbits are obtained and prepared according to the technique described by P. Borgeat and B. Samuelson (J. Biol. Chem. 254, n° 8, p. 2643, 1979).
as §5
(§10) The incubation and extraction methods are those described by J. Y. Vanderhoek & co-workers (J. Biol. Chem. […], 21, 10064, 1980).
(§11) The percent inhibition of the 5-lipoxygenase is determined as a function of the concentration of each compound. The concentration of product that inhibits the metabolism by a factor of 50% (IC50) is inferred from those curves.

[4] = test system: 15 HETE; test: Metabolism of 14C-arachidonate in rabbit peritoneal PMNs: 15 HETE; type: cell-based; settings: 15 HETE formation, n.i. = no inhibition
Procedure: as §8, §9, §5, §10, §11

[5] = test system: prostanoids; test: Inhibition of the metabolism of 14C-arachidonate in the blood platelets of rabbits: prostanoids route (TxB2, HHT); type: cell-based; settings: rabbit blood platelets
Procedure: as §1, §2, §3, §4, §5, §6, §7

[6] = Acute toxicity, intraperitoneal route; settings: mouse, in vivo, ip, in DMSO, 14 days observation, with confidence interval
Procedure: The test animals used are Swiss mice (NMRI-Han). The average weight of the male animals is 30 g, that of the females is 25 g.
The acute toxicity investigation was conducted by the intraperitoneal route.
The compounds, dissolved in DMSO, are injected under the ventral side of the peritoneum, at increasing dosages.
The reference group is administered DMSO under the same conditions (2.5 ml.kg^-1).
Following Table III gives the values of the 50% lethal dosages together with the […].

[7] = 5 HETE formation, read-out: IC50 in the PMNs, 5 HETE
[8] = LTB4 formation, read-out: IC50 in the PMNs, LTB4
[9] = Oryctolagus cuniculus, Platelet, HHT, read-out: IC50 in the blood platelets, HHT
[10] = thromboxane B2, read-out: IC50 in the blood platelets, T × B2
[11] = HHT, read-out: IC50 in the blood platelets, HHT

IC50 ([4]; Oryctolagus cuniculus) [µM]	Compound	concentration at which inflammation is inhibited by a factor of 50% ([2]; at least seven rats) [mg/mL]	concentration at which inflammation is inhibited by a factor of 50% ([2]; molar value in parentheses) [µmol/mL]	IC50 [3, 7] [µM]	IC50 [3, 8] [µM]	IC50 ([1]; 12 HETE, n.i. = no inhibition) [µM]	IC50 [5, 10] [µM]	IC50 [5, 11] [µM]	further results
–	CC(=O)Oc1ccccc1C(=O)O [Aspirin]	70	233	–	–	–	–	–	inhibition of the 12-lipoxygenase route (chromatographic profile, FIG. 3b) [1]: does not inhibit the 12-lipoxygenase route
–	C[C@@H]1C[C@H]2[C@@H]3CCC4=CC(=O)C=C[C@]4(C)[C@@]3(F)[C@@H](O)C[C@]2(C)[C@@]1(O)C(=O)CO [Dexamethasone]	1	2.5	–	–	–	–	–	–
> 50	CCOC(=O)CCCC(C)=NNc1nccs1 [Example 1]	–	–	< 2	< 2	> 50	> 50	–	IC50 [5, 9]: > 50 µM
–	CCOC(=O)CCCC(C)=NNc1nccs1 [Example 1a]	–	–	–	13	–	12	50	IC50 in the blood platelets, 12 HETE ([1]; 12 HETE, n.i. = no inhibition): n.i.
–	CC(=NNc1nccs1)c1cccs1 [Example 3]	–	–	18	7	3	50	20	IC50 in the PMNs, 15 HETE [4]: n.i.
–	CC(=NNc1nccs1)c1cccs1 [Example 3b]	16	57	10	13	10	10	> 50	inhibition of the metabolism of the 5-lipoxygenase route (chromatographic profile, FIG. 2b) ([3]; 50 μM): inhibition of the metabolism of the 5-lipoxygenase route; IC50 [4]: 40 µM; LD50 at 336 h ([6]; female Swiss mice, read-out: Parenteral LD50, female mice): 155 ± 32 mg/kg; LD50 at 336 h ([6]; male Swiss mice, read-out: Parenteral LD50, male mice): 105 ± 24 mg/kg
> 50	CC(=NNc1nccs1)c1ccco1 [Example 3c]	–	–	10	2	14	–	–	IC50 [5, 9]: > 50 µM; IC50 ([5]; Oryctolagus cuniculus, Platelet, thromboxane B2, read-out: IC50 in the blood platelets, T × B2): 10 µM
–	CC(=NNc1nccs1)c1cccs1 [Example 3d]	–	–	< 2	2	22	10	50	IC50 in the PMNs, 15 HETE [4]: n.i.

Compound	IC50 ([4]; Oryctolagus cuniculus) [µM]	concentration at which inflammation is inhibited by a factor of 50% ([2]; at least seven rats) [mg/mL]	concentration at which inflammation is inhibited by a factor of 50% ([2]; molar value in parentheses) [µmol/mL]	IC50 [3, 7] [µM]	IC50 [3, 8] [µM]	IC50 ([1]; 12 HETE, n.i. = no inhibition) [µM]	IC50 [5, 10] [µM]	IC50 [5, 11] [µM]	further results
CC(=NNc1nccs1)c1cccs1 [Example 3a]	40	–	–	15	–	30	13	21	–
